Measurements: the SangsterLogP compilation
Non-standard residues stand in square brackets, D forms with d. Residues, ends and D or L forms follow the SMILES beside them. ξ: configuration not given here. *: point of attachment. ξF = NC(Cc1ccccc1)C(=O)O; Cbz = O=C(OCc1ccccc1)*

Experiment: method code SF, from Hansch, C. & Leo, A. (1987). Log P database [Dataset]. Pomona College Medicinal Chemistry Project.

Compound | logP | other results
N/N=C1\c2ccccc2C(=O)C1C(=O)C(c1ccccc1)c1ccccc1 (stereo unspecified) | 3.62 | 
O=C(Nc1ccc(Cl)c(Cl)c1)C(F)F | 3.18 | 
CCc1ccc(OC(C)=O)cc1 | 2.56 | 
O=C1C=CC(=O)N1 | -0.29 | 
C#CCCC(C)=O | 0.58 | 
CC1=Nc2ccc([N+](=O)[O-])cc2S(=O)(=O)N1 | 0.65 | 
CCOC(=O)C(=Cc1cccc(OCC)c1)C(=O)OCC | 3.39 | 
Brc1ccccn1 | 1.42 | 
Fc1c(F)c(F)c(F)c(F)c1F | 2.22 | 
COc1cc(C=NOC(=O)COc2ccccc2)ccc1OCCO | 2.1 | 
CNc1cccc2ccccc12 | 2.88 | 
CC(=O)Nc1ccccc1C(C)C |  | logD (pH 7.4): 1.71
COc1cccc(OC)c1OC | 1.53 | 
O=C(O)c1csc(C=Cc2ccc([N+](=O)[O-])o2)n1 | -0.03 | 
CC(O)C(C)(C)C(O)C(=O)OCC1=CC[N+]2([O-])CCC(O)C12 (stereo unspecified) |  | logD (pH 7.4): -1.52
CCCN(CCC)S(=O)(=O)c1ccc(C(=O)O)cc1 |  | logD (pH 1.0): 3.21
O=C1CCCCC1 | 0.81 | 
CCOC(=O)C(=Cc1ccc(Br)cc1)C(=O)OCC | 4.02 | 
Cc1ccccc1OC(=O)N(C)C | 1.86 | 
N#C/N=N/c1ccccc1 | 2.3 | 
CC(C)Oc1ccccc1OC(=O)N(C)C | 2.06 | 
CCCCNC(N)=O | 0.41 | 
CSCC1=C(C(=O)O)N2C(=O)C(NC(=O)Cc3cccs3)C2SC1 (stereo unspecified) |  | logD (pH 3.0): 1.01
OC(c1ccccc1)C1CCCCN1 (stereo unspecified) | 1.28 | 
CC(=O)Nc1ccccc1NC(C)=O | -0.03 | 
CCOP(=O)(N=C1SCC(C)S1)OCC (stereo unspecified) | 1.04 | 

Compound | logP | other results
C=CCc1cccc2c(=O)c(C)c(-c3ccccc3)oc12 | 4.67 | 
CCCOCCC(=O)N(C)c1ccc(S(=O)(=O)N(C)C)cc1 | 1.26 | 
O=C(O)CCCc1c[nH]c2ccccc12 | 2.3 | 
Nc1cc(C(F)(F)F)cc(C(F)(F)F)c1 | 3.57 | 
N#Cc1ccc(OC(=O)CNC(=O)c2ccccc2)cc1 | 2.1 | 
CNP(=O)(OC)Oc1ccc(Cl)cc1Cl (stereo unspecified) | 2.41 | 
[N-]=[N+]=Nc1ccccc1 | 2.59 | 
CNC(=O)N(C)c1ccccc1 | 1.02 | 
CC(=O)c1cccc(N2C(N)=NC(N)=NC2(C)C)c1 |  | logD (pH 13.0): -0.22
CCCCCCCCN(CCCCCCCC)N=Cc1c2c(O)c3c(O)c(C)c4c(c3c1O)C(=O)C(C)(O/C=C\C(OC)C(C)C(OC(C)=O)C(C)C(O)C(C)C(O)C(C)/C=C\C=C(\C)C(=O)N2)O4 (stereo unspecified) | 3.6 | 
CCCCNCc1cccnc1 |  | logD (pH 11.0): 1.34
COc1ccc2[nH]c(CCc3nc4cc(OC)ccc4[nH]3)nc2c1 | 1.14 | 
CC(=O)Oc1ccccc1C(C)C | 2.78 | 
COc1ccc2[nH]c(CCCCc3nc4cc(OC)ccc4[nH]3)nc2c1 | 1.42 | 
ClC(Cl)(Cl)Sc1ccccc1 | 3.78 | 
COCC(=O)Nc1ccc(Cl)c(Cl)c1 | 2.77 | 
OCCCc1nc2ccccc2[nH]1 | 1.25 | 
Cc1ccccc1Cl | 3.42 | 
CC(=O)Oc1ccccc1[N+](=O)[O-] | 1.55 | 
O=C1C(=O)c2cccc3cccc1c23 | 1.95 | 
CCCCN(CCCC)C(=O)COc1ccccc1 | 3.23 | 
CC(=O)Sc1ccccc1 | 2.23 | 
CCC1(CCC(C)C)C(=O)NC(=S)NC1=O | 2.98 | 
Cc1ccccc1C(O)c1ccccc1 (stereo unspecified) | 3.06 | 
CN(C)c1nc2ccccc2o1 | 2.1 | 
Cc1c(N(C)C)c(=O)n(CCO)c(=O)n1-c1ccccc1 |  | logD (pH 7.4): 1.12

Compound | logP | other results
CSc1ccccc1NC(C)=O | 1.53 | 
O=C(O)c1ccco1 | 0.64 | 
CN(C)CCC1CN(C)C(=S)c2cccnc2O1 (stereo unspecified) | 1.08 | 
CCOC(=O)C(Cc1ccccc1)C(=O)OCC | 2.76 | 
CC(C)[C@H](NC(=O)C(Cc1ccccc1)NC(=O)OCc1ccccc1)C(=O)O (stereo partly specified) (Cbz-[ξF]-Val-OH) | 2.88 | 
CC1=Nc2cc(N)c(Cl)cc2S(=O)(=O)N1 | 0.63 | 
CCCCC(=O)c1ccc[nH]1 | 2.42 | 
O=c1[nH]cc(I)c(=O)[nH]1 | 0.04 | 
CN(C)C(=O)COc1ccccc1 | 0.78 | 
CCC1(c2ccccc2)CCC(=O)NC1=O (stereo unspecified) | 1.9 | 
COc1ccccc1C(=O)c1ccncc1 | 1.86 | 
O=C1NC(c2cccc3ccccc23)Nc2ccccc21 (stereo unspecified) | 2.96 | 
COc1cccc(C(N)=O)c1 | 0.85 | 
OCc1cccc(C(F)(F)F)c1 | 2.24 | 
CC(=S)Nc1ccccc1 | 1.71 | 
c1cocn1 | 0.12 | 
CN(C)Cc1cccs1 | 1.67 | 
NC(=O)[C@H](Cc1ccccc1)NC(=O)[C@@H](N)Cc1ccccc1 (H-Phe-Phe-NH2) | 1.13 | 
Cn1cc(C(=O)O)c2ccccc21 |  | logD (pH 2.0): 1.76
Nc1ccc(OC(=O)CNC(=O)c2ccccc2)cc1 | 1.01 | 
CC(=O)Nc1cccc(C#N)c1 | 1.2 | 
Oc1cc(-c2ccccc2)on1 |  | logD (pH 1.0): 2.55
COC(=O)C[C@](O)(CCCC(C)(C)O)C(=O)OC1C(OC)=C[C@]23CCCN2CCc2cc4c(cc2[C@H]13)OCO4 (stereo partly specified) | 0.82 | 
CCOC(=O)C(=Cc1cccc(C)c1)C(=O)OCC | 3.55 | 
C#CC(C)(C)O | 0.28 | 
CC(=O)OCCOC(=O)c1ccccc1 | 1.85 | 

Compound | logP | other results
CS(=O)(=O)c1cccc([N+](=O)[O-])c1 |  | logD (pH 7.0): 0.5
N#Cc1c[nH]c(=O)[nH]c1=O |  | logD (pH 1.0): -0.93
Cc1c(N(C)C)c(=O)[nH]c(=O)n1-c1ccccc1 |  | logD (pH 7.4): 1.4
CC(=O)CCC(=O)N(C)c1ccc(S(=O)(=O)N(C)C)cc1 | 0.2 | 
CN(C)C(=O)Nc1ccc([N+](=O)[O-])cc1 | 1.51 | 
CCCC(O)CCC | 2.22 | 
CCCCNc1c(C)n(C)c(=O)n(-c2ccccc2)c1=O |  | logD (pH 7.4): 1.69
Cc1oc2ccccc2c(=O)c1C | 2.31 | 
O=[N+]([O-])c1ccc(/C=C/c2cccc(CO)n2)o1 | 1.37 | 
CCN(CC)c1ccc(NC(=O)N(C)OC)cc1 | 2.33 | 
COc1cc2c(c(OC)c1OC)-c1ccc(O)c(=O)cc1[C@@H](N)CC2 | 0.26 | 
CCOC(=O)C(=Cc1ccc(Cl)c(Cl)c1)C(C)=O | 3.92 | 
CC(C)(C)c1ccccc1 | 4.11 | 
CCCC1CC(C(=O)NC(C(C)Cl)C2OC(SC)C(O)C(O)C2O)N(CC)C1 (stereo unspecified) |  | logD (pH 12.0): 2.51
CSc1ccc(C=NN=C(N)NN)cc1 | 1.35 | 
CCCCC1=Nc2ccc(Cl)cc2S(=O)(=O)N1 | 2.52 | 
Cc1c(Cl)c(Cl)c(Cl)c(Cl)c1Cl | 5.62 | 
OC12CC3CC(CC(C3)C1)C2 | 2.14 | 
O=c1c2ccccc2sc2ccccc12 | 3.99 | 
O=C(O)COc1ccccc1O | 0.85 | 
CC(C)(C)[N+](=O)[O-] | 1.01 | 
CC1=Nc2cc(Cl)ccc2S(=O)(=O)N1 | 1.21 | 
Nc1ccccc1Br | 2.11 | 
CC(=O)Nc1cccc(/N=N/N(C)C)c1 | 1.61 | 
OCc1ccoc1 | 0.3 | 
O=[N+]([O-])c1ccc(CCO)cc1 | 1.12 | 

Compound | logP | other results
CC(C)(O)C(F)(F)F | 1.04 | 
CC(=O)NNC(=O)c1ccccn1 | -0.59 | 
COc1ccc(-c2nc3ccccc3[nH]2)c(OC)c1 |  | logD (pH 8.0): 2.59
COc1cc(C=NOC(=O)c2cc(OC)c(OC)c(OC)c2)ccc1OCCO | 2.7 | 
CCCC1=Nc2cc(Cl)ccc2S(=O)(=O)N1 | 2.04 | 
CCOC(=O)c1ccccc1N | 2.57 | 
CCNP(=O)(OC)Oc1cc(Cl)c(Cl)cc1Cl (stereo unspecified) | 3.18 | 
NC(=O)NC1OC(=O)c2ccccc21 (stereo unspecified) | 0.49 | 
COc1cccc(OC)n1 | 2.3 | 
COc1ccc(OC(=O)N(C)C)cc1 | 1.53 | 
COc1ccc2c(c1O)-c1cccc3c1C(C2)N(CCO)CC3 (stereo unspecified) |  | logD (pH 7.4): 2.43
CNC(=O)C=Cc1ccccc1 | 1.81 | 
CC(C)(C)C(=O)Nc1ccc(Cl)c(Cl)c1 | 3.88 | 
CNC(=O)Oc1cccc(Cl)c1Cl | 2.48 | 
CC1=Nc2ccc(S(=O)(=O)N(C)C)cc2S(=O)(=O)N1 | 0.32 | 
O=C(NCc1ccccc1)c1ccco1 | 1.81 | 
O=C(O)COc1ccccc1-c1ccccc1 | 2.83 | 
N#CC(C#N)=C(c1ccccc1)c1ccccc1 | 3.55 | 
c1ccc(-n2cccc2)cc1 | 3.08 | 
ONc1ccccc1 | 0.79 | 
O=c1nccc[nH]1 | -1.62 | 
O=CNc1cccc([N+](=O)[O-])c1 |  | logD (pH 7.0): 1.4
CS(=O)(=O)c1ccc(Cl)cc1 |  | logD (pH 7.0): 1.06
OC[C@@H](O)[C@@H](O)CO | -2.29 | 
NS(=O)(=O)NS(=O)(=O)Nc1ccccc1 | 0.02 | 
COC(=O)[C@@]12OC[C@@]34[C@H](C[C@@H]5C(C)=C(O)C(=O)C[C@]5(C)[C@H]3C(O)C1O)OC(=O)C(OC(=O)C=C(C)C(C)C)[C@@H]42 (stereo partly specified) | 1.66 | 

Compound | logP | other results
CCOC(=O)CC(=O)C=Cc1ccc(C)cc1 | 2.63 | 
COc1cccc([N+]([O-])=NC#N)c1 | 2.24 | 
NS(=O)(=O)Nc1ccccc1 | 0.4 | 
O=[N+]([O-])c1cccc(I)c1 | 2.94 | 
Cc1ccncc1 | 1.22 | 
CC(C)c1ccc(O)c(=O)cc1 |  | logD (pH 5.0): 1.89
CCOC(C)OCC | 1.49 | 
CCNCCc1cccnc1 |  | logD (pH 11.0): 0.54
CC(=O)Nc1ccc(Oc2ccccc2)cc1 | 3.13 | 
CCOC(=O)C(=Cc1ccc(OC)cc1)C(=O)OCC | 3.28 | 
CC(C)CCC(=O)c1ccoc1 | 2.76 | 
N#Cc1cccc(C(N)=O)c1 | 0.52 | 
COc1cc2c(c(OC)c1OC)-c1ccc(OC)c(=O)cc1[C@@H](N)CC2 | 0.67 | 
Clc1ccc2[nH]c(CCc3nc4cc(Cl)ccc4[nH]3)nc2c1 | 1.13 | 
O=C1CCCN1CCOc1ccc([N+](=O)[O-])cc1 | 1.33 | 
CC(=O)OC1OC(C)C(OC(C)=O)C(OC(C)=O)C1NC(=O)N(CCCl)N=O (stereo unspecified) | 1.32 | 
CC(=O)OCC1=C(C(=O)O)N2C(=O)C(NC(=O)COc3ccccc3)C2SC1 (stereo unspecified) |  | logD (pH 3.0): 0.26
CCCCCc1cn[nH]c1 | 2.96 | 
CO[C@H]1/C=C\O[C@@]2(C)Oc3c(C)c(O)c4c(O)c(c(/C=N/OCCCc5ccccc5)c(O)c4c3C2=O)NC(=O)/C(C)=C\C=C/[C@H](C)[C@H](O)[C@@H](C)[C@@H](O)[C@@H](C)[C@H](OC(C)=O)[C@@H]1C | 4.83 | 
O=C1C(NCCO)=C(N2CC2)C(=O)C(NCCO)=C1N1CC1 | -1.48 | 
CC1(C)OCCO1 | 0.46 | 
